Measured values reported in article PMC6008299, “Impact of race on dose selection of molecular-targeted agents in early-phase oncology trials” (British Journal of Cancer, 2018).

Test system: patients with advanced, refractory solid tumours
Test: US and Japanese phase I studies combined: safety
Assay type: in vivo, human
Protocol: We conducted two independent, prospective, first-in-human phase I studies of DS-7423, a dual PI3K/mTOR inhibitor, in patients with advanced, refractory solid tumours in the US (U101 study) and Japan (J102 study); age ≥18 years in the US and ≥20 years in Japan; and Eastern Cooperative Oncology Group performance status (ECOG PS) 0–1. Key exclusion criteria included fasting glucose >126 mg/dL (>7 mmol/L); HbA1c >7.0% for the US and HbA1c >6.5% for Japan; history of diabetes mellitus (type I or II); concomitant use of chronic systemic corticosteroids, or prior toxicities from a dual PI3K/mTOR inhibitor (Supplementary Table 1). Studies were approved by the Institutional Review Board at the participating institutions and regulatory authorities. Written informed consent in English and Japanese was obtained from all patients prior to enrollment. The study followed the Declaration of Helsinki and good clinical practice guidelines and was registered with ClinicalTrials.gov (NCT01364844) and with ClinicalTrials.jp (Japic CTI, 12766).
The primary objective was to assess the safety and tolerability to determine the MTD and RP2D of DS-7423 in US and Japanese patients. Secondary and exploratory objectives were to evaluate PK, tumour response, and PD effects. Treatment-emergent adverse events (TEAE) were graded using the Common Terminology Criteria for Adverse Events version 4.0. A dose-limiting toxicity (DLT) was defined as a grade ≥3 clinically significant toxicity, with the exceptions of grade ≥4 anaemia and prolonged grade 3 neutropenia. Both studies were open-label, phase I dose-escalation studies. In Japan, the study was conducted at a single centre, while the US study was conducted at three sites. In Japan, dose escalation of DS-7423 was guided by the modified continuous reassessment method (mCRM) using a Bayesian logistic regression model following the escalation with overdose control (EWOC) principle at a starting dose of 4 mg once daily.[9] In the US, an accelerated titration design was used at low doses followed by a mCRM with EWOC. Briefly, the dose was escalated based on safety data in a single patient until a grade 2 or higher toxicity was observed during cycle 1 or the DLT period (days 1–28). In both studies, DS-7423 was administered orally once daily until patients experienced unacceptable treatment-related toxicity or disease progression. Prophylactic granulocyte colony-stimulating factor and antiemetics were not permitted during cycle 1.

In the case of `CC(=O)N1CCN(c2nc3c(N4CCOCC4)nc(-c4cnc(N)nc4)nc3n2CC(F)(F)F)C[C@H]1C` [DS-7423], the “AST increased (TEAE), incidence” value (All (n = 69)) was 10.1%, the “AST increased (TEAE), n patients” value (All (n = 69)) was 7 and the “Abdominal pain (TEAE), incidence” value (All (n = 69)) was 14.5%. The “Abdominal pain (TEAE), n patients” value (All (n = 69)) was 10, the “Back pain (TEAE), incidence” value (All (n = 69)) was 15.9% and the “Back pain (TEAE), n patients” value (All (n = 69)) was 11. The “Blood creatinine increased (TEAE), incidence” value (All (n = 69)) was 10.1%, the “Blood creatinine increased (TEAE), n patients” value (All (n = 69)) was 7 and the “Constipation (TEAE), incidence” value (All (n = 69)) was 18.8%. The “Constipation (TEAE), n patients” value (All (n = 69)) was 13, the “Cough (TEAE), incidence” value (All (n = 69)) was 15.9% and the “Cough (TEAE), n patients” value (All (n = 69)) was 11. The “Decreased appetite (TEAE), incidence” value (All (n = 69)) was 49.3%, the “Decreased appetite (TEAE), n patients” value (All (n = 69)) was 34 and the “Dehydration (TEAE), incidence” value (All (n = 69)) was 8.7%. The “Dehydration (TEAE), n patients” value (All (n = 69)) was 6, the “Diarrhoea (TEAE), incidence” value (All (n = 69)) was 56.5% and the “Diarrhoea (TEAE), n patients” value (All (n = 69)) was 39. The “Dry mouth (TEAE), incidence” value (All (n = 69)) was 18.8%, the “Dry mouth (TEAE), n patients” value (All (n = 69)) was 13 and the “Dysgeusia (TEAE), incidence” value (All (n = 69)) was 27.5%. For the same compound, the “Dysgeusia (TEAE), n patients” value (All (n = 69)) was 19, the “Edema (TEAE), incidence” value (All (n = 69)) was 17.4% and the “Edema (TEAE), n patients” value (All (n = 69)) was 12. For the same compound, the “Fatigue (TEAE), incidence” value (All (n = 69)) was 55.1%, the “Fatigue (TEAE), n patients” value (All (n = 69)) was 38 and the “Hyperglycaemia (TEAE), incidence” value (All (n = 69)) was 17.4%. The “Hyperglycaemia (TEAE), n patients” value (All (n = 69)) was 12, the “Lung infection/ pneumonia (TEAE), incidence” value (All (n = 69)) was 5.8% and the “Lung infection/ pneumonia (TEAE), n patients” value (All (n = 69)) was 4. For the same compound, the “Nausea (TEAE), incidence” value (All (n = 69)) was 56.5%, the “Nausea (TEAE), n patients” value (All (n = 69)) was 39 and the “Pyrexia (TEAE), incidence” value (All (n = 69)) was 14.5%. The “Pyrexia (TEAE), n patients” value (All (n = 69)) was 10, the “Rash (TEAE), incidence” value (All (n = 69)) was 33.3% and the “Rash (TEAE), n patients” value (All (n = 69)) was 23. The “Stomatitis (TEAE), incidence” value (All (n = 69)) was 33.3%, the “Stomatitis (TEAE), n patients” value (All (n = 69)) was 23 and the “Vomiting (TEAE), incidence” value (All (n = 69)) was 37.7%. For the same compound, the “Vomiting (TEAE), n patients” value (All (n = 69)) was 26, the RP2D (US and Japan phase I studies, oral once daily) was 240 mg/day and the “DS-7423-related ≥grade 3 TEAE” value (all cohorts) was “rare”. For the same compound, the “Grade of nausea, vomiting, and dysgeusia events” value (all cohorts) was “grade 1 or 2”.
